Measured values taken from PMC6940896, “Development of a Highly Efficient Hybrid Peptide That Increases Immunomodulatory Activity Via the TLR4-Mediated Nuclear Factor-κB Signaling Pathway” (International Journal of Molecular Sciences, 2019).
No end group written: not given here.

Legend:
RAW264.7 cells = assay: Cytokine production in RAW264.7 macrophages (ELISA); format: cell-based, mouse; details: RAW264.7, 10 μg/mL peptide, 12 h (Figure 3 legend; method says 24 h), n = 5
Protocol: RAW264.7 cells were stimulated with or without 10 μg/mL peptides for 24 h at 37 °C in a humidified incubator with 5% CO2. Levels of TNF-α, IL-6, and IL-1β in the culture supernatant were measured using enzyme-linked immunosorbent assay (ELISA) kits according to the manufacturer’s instructions

[1] = test system: CTX-immunosuppressed Balb/c mice; assay: Body weight and immune organ indices in CTX-immunosuppressed mice; format: in vivo, mouse; details: CTX 80 mg/kg ip days 1-3, peptide 10 mg/kg ip days 4-10, n = 12
Text: Female specific-pathogen-free (SPF) Balb/c mice (6-8 weeks of age, weighing 20 ± 2.0 g) were purchased from Charles River (Beijing, China). The mice were housed in a SPF environment at room temperature with a relative humidity of 55 ± 10% and allowed free access to food and water during the experiments. All of the animal protocols were approved by the Institutional Animal Care and Ethics Committee of the China Agricultural University (CAU20170430-4). […] Sigma-Aldrich, St. Louis, MO, USA) group, a LL-37 group, a Tα1 group, and a LTAa group. For the first 3 days, CTX (80 mg/kg mouse weight) was administered intraperitoneally once daily to establish the immunosuppressed animal model. From days 4 to 10 (7 days), peptides (10 mg/kg mouse weight) were administered intraperitoneally each day. The CTX group was only treated with CTX, and the control group was given sterile saline. The dose volume was 200 μL. Twenty-four hours after the last dose, the mice were killed and their tissues and blood collected for analysis. The body weight index was calculated in the following way:(2) Index (%)=final body weight-[…] body weight/initial body weight ×100% Spleen and thymus indices were calculated in the following way:(3) Index (mg/kg)=weight of thymus or spleen/body weight

peritoneal macrophages = assay: Peritoneal macrophage phagocytosis (neutral red uptake) in CTX-immunosuppressed mice; format: in vivo, mouse; details: peritoneal macrophages of mice, OD 540 nm, CTX 80 mg/kg ip days 1-3, peptide 10 mg/kg ip days 4-10, control group 55.67%, n = 12
Protocol: Peritoneal macrophages were aseptically obtained from the different groups of mice by peritoneal lavage with 5 mL ice-cold phosphate-buffered saline (PBS). The peritoneal macrophages were further isolated by incubating peritoneal exudate cells at 37 °C in a moist atmosphere (5% CO2, 95% air) for 3 h to allow the cells to adhere. The adherent cells were washed twice and collected as peritoneal macrophages.
The phagocytic capacity of the peritoneal macrophages was measured by the neutral red uptake method [52]. […] The OD was measured using a microplate reader at 540 nm. The phagocytic rate was calculated in the following way:(4) hagocytic rate (%)=OD540(sample)/OD540(control) ×100% where OD540 (sample) is the absorbance at 540 nm by peptide-treated cells and OD540 (control) is the absorbance at 540 nm by the cells without peptides treated.

TLR4/MD-2 = target: T1, TLR4/MD-2 (Mus musculus, UniProt Q9JHF9+Q9QUK6); assay: Cytokine production in RAW264.7 cells with or without TLR4/MD-2 mAb pretreatment; format: cell-based; details: then 10 μg/mL peptide 24 h, ELISA, n = 3
T1 construct: endogenous in cells; host or cells: RAW264.7
T1 sequence (Q9QUK6 26-835): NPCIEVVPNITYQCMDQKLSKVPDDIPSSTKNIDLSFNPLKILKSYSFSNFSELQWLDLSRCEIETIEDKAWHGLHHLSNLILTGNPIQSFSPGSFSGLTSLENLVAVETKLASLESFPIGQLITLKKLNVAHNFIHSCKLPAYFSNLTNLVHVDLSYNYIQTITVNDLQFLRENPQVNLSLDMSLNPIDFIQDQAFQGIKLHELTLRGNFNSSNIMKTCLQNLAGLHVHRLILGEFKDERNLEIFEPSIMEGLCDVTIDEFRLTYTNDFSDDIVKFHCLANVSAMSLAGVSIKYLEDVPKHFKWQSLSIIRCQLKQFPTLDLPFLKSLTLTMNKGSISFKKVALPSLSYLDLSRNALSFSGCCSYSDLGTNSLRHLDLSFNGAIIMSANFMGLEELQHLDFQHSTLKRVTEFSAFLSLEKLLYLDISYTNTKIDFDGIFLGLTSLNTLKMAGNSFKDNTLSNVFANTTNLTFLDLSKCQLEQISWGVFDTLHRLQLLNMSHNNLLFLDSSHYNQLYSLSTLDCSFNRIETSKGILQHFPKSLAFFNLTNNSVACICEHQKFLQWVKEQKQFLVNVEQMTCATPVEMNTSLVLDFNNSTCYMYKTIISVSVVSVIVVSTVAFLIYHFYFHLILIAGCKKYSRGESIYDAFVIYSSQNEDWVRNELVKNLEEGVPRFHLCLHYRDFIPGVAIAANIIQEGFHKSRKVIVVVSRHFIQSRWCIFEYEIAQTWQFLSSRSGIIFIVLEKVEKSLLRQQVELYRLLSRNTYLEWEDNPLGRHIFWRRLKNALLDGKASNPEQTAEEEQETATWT
T1 sequence (Q9JHF9 19-160): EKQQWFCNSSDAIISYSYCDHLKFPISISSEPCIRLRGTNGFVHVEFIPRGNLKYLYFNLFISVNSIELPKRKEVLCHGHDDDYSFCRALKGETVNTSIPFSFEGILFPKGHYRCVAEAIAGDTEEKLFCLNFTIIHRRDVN
Protocol: RAW264.7 cells were treated with PBS or an anti-mouse mAbTLR4/MD-2 complex (MTS510 Ab) (eBioscience, San Diego, CA, USA) at 37 °C for 1 h, and RAW264.7 cells were treated with or without 10 μg/mL peptides for 24 h at 37 °C in a moist atmosphere (5% CO2, 95% air). Levels of TNF-α, IL-6, and IL-1β in the culture supernatant were detected by ELISA.

recombinant TLR4/MD2 = target: T2, recombinant TLR4/MD2 (Homo sapiens, UniProt O00206+Q9Y6Y9); assay: Surface plasmon resonance binding to immobilized TLR4/MD2; details: SPR, ProteOn XPR36, GLH chip, 25 °C, PBS 0.1% Tween 20 with 2% DMSO, 1:1 model, 0-10 μM peptide
T2 construct: purchased R&D Systems
T2 sequence (O00206 24-631 limits assumed, species assumed): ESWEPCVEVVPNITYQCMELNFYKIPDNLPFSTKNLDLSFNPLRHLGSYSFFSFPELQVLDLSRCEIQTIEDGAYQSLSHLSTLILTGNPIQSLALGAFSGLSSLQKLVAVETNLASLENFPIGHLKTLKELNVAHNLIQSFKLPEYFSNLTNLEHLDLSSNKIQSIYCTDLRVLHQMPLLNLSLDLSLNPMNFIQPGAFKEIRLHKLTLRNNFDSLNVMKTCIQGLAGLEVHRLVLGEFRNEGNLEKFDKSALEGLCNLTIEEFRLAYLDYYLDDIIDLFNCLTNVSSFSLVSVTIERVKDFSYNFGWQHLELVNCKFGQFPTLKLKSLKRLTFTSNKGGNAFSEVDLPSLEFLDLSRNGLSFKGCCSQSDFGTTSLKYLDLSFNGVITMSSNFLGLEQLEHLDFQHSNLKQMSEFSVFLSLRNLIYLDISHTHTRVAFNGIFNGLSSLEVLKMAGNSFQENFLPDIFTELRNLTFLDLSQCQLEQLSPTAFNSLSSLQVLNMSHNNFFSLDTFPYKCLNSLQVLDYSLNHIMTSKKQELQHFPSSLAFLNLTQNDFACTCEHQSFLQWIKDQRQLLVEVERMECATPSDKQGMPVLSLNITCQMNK
T2 sequence (Q9Y6Y9 19-160, species assumed): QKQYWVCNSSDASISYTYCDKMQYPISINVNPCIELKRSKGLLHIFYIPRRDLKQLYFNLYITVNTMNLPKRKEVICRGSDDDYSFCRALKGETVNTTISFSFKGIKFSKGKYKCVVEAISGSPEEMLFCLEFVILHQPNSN
Protocol: Surface plasmon resonance (SPR) experiments were performed using a ProteOn^TM XPR36 instrument (Bio-Rad, Hercules, CA, USA) with a ProteOn^TM GLH sensor chip (Bio-Rad) at 25 °C. PBS supplemented with 0.1% Tween 20 (containing 2% dimethyl sulfoxide) was used as a running buffer and was continuously passed into the reaction chamber at 30 μL/min. A SPR sensing chip with recombinant TLR4/MD2 (R&D Systems, Minneapolis, MN, USA) that was immobilized by amino coupling was used to capture the peptide, according to the manufacturer’s protocol. […] The running buffer was injected into the empty channel as a reference. Sensor chip regeneration and desorption were achieved by injecting 10 mM Gly-HCl buffer (pH 2.5) before the next round of analyses. The experimental data were analyzed by ProteOn Manager^TM software (version 2.0). Binding curves were processed for the initial injection alignment and baseline, and a reference-subtracted sensorgram was globally fitted to the curves to describe a homogeneous 1:1 model. Data from the protein surfaces were grouped together to fit the kinetic rate constants (Ka and Kd). The equilibrium dissociation constant (KD) for the peptide-TLR4/MD2 interaction was calculated using the following equation:(5) KD=Kd/Ka

Q: What does the source list for IGKEFKRIVQRIKDFLRNLVPRTEKEKKEVVE [LTAa]?
A: TNF-α, IL-6 and IL-1β production/secretion (RAW264.7 cells): remarkable increases; body weight [1]: rapidly recovered their weight; spleen and thymus index [1]: reversed this effect; macrophage phagocytic rate (peritoneal macrophages): significantly higher phagocytic rates than those in the Tα1- or LL-37-treated groups; TNF-α, IL-6 and IL-1β production, PBS pretreatment (TLR4/MD-2; RAW264.7, PBS 1 h): significant increase; TNF-α, IL-6 and IL-1β production induced by LTAa after TLR4/MD-2 mAb pretreatment (TLR4/MD-2; RAW264.7, TLR4/MD-2 mAb (MTS510 Ab) 1 h): significantly inhibited; Ka for binding to TLR4/MD2 (recombinant TLR4/MD2): 7.38e+09 M⁻¹ s⁻¹; Kd (rate constant) for binding to TLR4/MD2 (recombinant TLR4/MD2): 0.362 s⁻¹
